The values that follow are results of earlier work, collected in US11660375B2, “Product and method for the treatment of bioprosthetic tissues” (Epygon, priority 2017, dated 2023).

The test system of data set [1] is porcine aortic valve cusps. The conditions noted are these: rat subdermal, 60 days, pretreatment pH 7.4 for 24 hours.
In data set [2] the test system is Porcine aortic valve bioprostheses. Particulars: sheep, 150 days, leaflet calcium.
For data set [3], the system named is pericardium samples pretreated with 0.6% Glutaraldehyde. Particulars: after 6 months implantation, juvenile rats, subcutaneous.
The conditions of data set [4]: oral administration; IPCS, WHO Food Additives Series 32.
The conditions of data set [5]: at 25° C.

Read-outs that look alike come from different tables or passages of the source.

Regarding “2-hydroxypropyl β-Cyclodextrin [HP p-CD]”, the “toxicity on parenteral administration” value is listed as “don't show any toxicity”. For the same molecule, the “toxicity on parenteral administration” value (listed as 2-hydroxypropyl β-Cyclodextrin) was “appear to be safe”.

For `CCO` [60% Ethanol, Ethanol], the calcium level in data set [1] (listed as 60.0% Ethanol) is 28.5±12.0 μg/mg tissue.

For the molecule `CCO` [80% Ethanol, Ethanol], the Ca in data set [2] was 5.22 ± 2.94. In addition, the calcium level in data set [1] (listed as 80.0% Ethanol) is 1.87±0.29 μg/mg tissue.

For `CCO` [Ethanol], the Ca in the data set with porcine aortic cusps is reported as 13.3+/−5.6 μg/mg tissue.

Consider `OC[C@H]1O[C@H](O[C@H]2[C@H](O)[C@@H](O)[C@@H](OC[C@H]3O[C@@H]4O[C@H]5[C@H](O)[C@@H](O)[C@@H](O[C@H]6[C@H](O)[C@@H](O)[C@@H](O[C@H]7[C@H](O)[C@@H](O)C(O[C@H]8[C@H](O)[C@@H](O)[C@@H](O[C@H]9[C@H](O)[C@@H](O)[C@@H](O[C@H]%10[C@H](O)[C@@H](O)[C@@H](O[C@H]3[C@H](O)[C@H]4O)O[C@@H]%10CO)O[C@@H]9CO)O[C@@H]8CO)O[C@@H]7CO)O[C@@H]6CO)O[C@@H]5CO)O[C@@H]2CO)[C@H](O)[C@@H](O)[C@@H]1O` [Maltosyl β-Cyclodextrin], for which the “toxicity on parenteral administration” value is reported as “appear to be safe”.

With `CCCCCCCC/C=C\CCCCCCCC(=O)OCCOCC(OCCO)C1OCC(OCCO)C1OCCO` (stereo not drawn) [surfactant, Tween 80], the calcium content in data set [3] is given as 42.9±12.7 μg/mg dry tissue.

Take `OC[C@H]1O[C@@H]2O[C@H]3[C@H](O)[C@@H](O)[C@@H](O[C@H]4[C@H](O)[C@@H](O)[C@@H](O[C@H]5[C@H](O)[C@@H](O)[C@@H](O[C@H]6[C@H](O)[C@@H](O)[C@@H](O[C@H]7[C@H](O)[C@@H](O)[C@@H](O[C@H]1[C@H](O)[C@H]2O)O[C@@H]7CO)O[C@@H]6CO)O[C@@H]5CO)O[C@@H]4CO)O[C@@H]3CO` [α-Cyclodextrins, α-Cyclodextrin]: the “toxicity on parenteral administration” value was “don't show any toxicity”.

As for `OC[C@H]1O[C@@H]2O[C@H]3[C@H](O)[C@@H](O)[C@@H](O[C@H]4[C@H](O)[C@@H](O)[C@@H](O[C@H]5[C@H](O)[C@@H](O)[C@@H](O[C@H]6[C@H](O)[C@@H](O)[C@@H](O[C@H]7[C@H](O)[C@@H](O)[C@@H](O[C@H]8[C@H](O)[C@@H](O)[C@@H](O[C@H]1[C@H](O)[C@H]2O)O[C@@H]8CO)O[C@@H]7CO)O[C@@H]6CO)O[C@@H]5CO)O[C@@H]4CO)O[C@@H]3CO` [β-Cyclodextrin], the “toxicity on parenteral administration” value is recorded as “nephrotoxic”. The acceptable daily intake in data set [4] is recorded as 5 mg/kg of body weight.

Take `OC[C@H]1O[C@@H]2O[C@H]3[C@H](O)[C@@H](O)[C@@H](O[C@H]4[C@H](O)[C@@H](O)[C@@H](O[C@H]5[C@H](O)[C@@H](O)[C@@H](O[C@H]6[C@H](O)[C@@H](O)[C@@H](O[C@H]7[C@H](O)[C@@H](O)[C@@H](O[C@H]8[C@H](O)[C@@H](O)[C@@H](O[C@H]9[C@H](O)[C@@H](O)[C@@H](O[C@H]1[C@H](O)[C@H]2O)O[C@@H]9CO)O[C@@H]8CO)O[C@@H]7CO)O[C@@H]6CO)O[C@@H]5CO)O[C@@H]4CO)O[C@@H]3CO` [γ-Cyclodextrin]: the “toxicity on parenteral administration” value is on record as “appear to be safe”.

For “Sulfobutyl Ether7 β-Cyclodextrin [SBE7 β-CD]”, the “toxicity on parenteral administration” value was “appear to be safe”. Moreover, the water solubility in data set [5] is reported as ~70 g/100 ml.

Sulphated β-Cyclodextrin: the “toxicity on parenteral administration” value is listed as “appear to be safe”.
